Data: patent publication US10392398B2, “Inhibitors of Late SV40 Factor (LSF) as cancer chemotherapeutics” (TRUSTEES OF BOSTON UNIVERSITY, priority 2010, dated 2019)
“And” between values parts separate entries of the source, which are not always exact repeats. Equal values may be shown once. Read-outs that look alike come from different tables or passages of the source.

Experiments:
Format in all cases: cell-based
NIH/3T3 cells = assay: Cell proliferation assay (MTS), NIH/3T3; details: Mus musculus, NIH3T3
Experimental: (§1) Cells were plated at 3×10^4 cells/mL, A549 and HeLa, and 1×10^4 cells/mL, NIH/3T3, in 96-well plates and incubated for 24 h to allow for cell adhesion. LSF-library compounds were dissolved in DMSO, serial diluted in appropriate medium and added to cells in triplicate (2 plates). DMSO was added to control wells at a final concentration of 1%. After 72 h incubation in the presence of compound, confluent cells were assayed for growth proliferation with CellTiter 96® AQueous One Solution Cell Proliferation Assay (MTS) (Promega) according to the manufacturer's protocol. Plates were read at 490 nm on a microplate reader, and IC50 values were determined as the percentage of compound-treated cell growth to control cell growth. HCC cells—one hour after plating HCC cells onto 96-well plates, compound or vehicle (DMSO) was added to the desired concentrations, keeping DMSO at 0.5%. At indicated time points, cell viability was assayed using the CellTiter 96® Non-Radioactive Cell Proliferation Assay (MTT) (Promega).
(§2) QGY-7703 and A549 cells were cultured at 37° C. in 5% CO2 in DMEM (Dulbecco's modification of Eagle's Medium; Corning) supplemented with 10% Fetal Bovine Serum (FBS; Invitrogen). NIH-3T3 cells were cultured at 37° C. in 5% CO2 in DMEM supplemented with 10% Fetal Calf Serum (FCS; Atlanta Biologicals). For cell viability assays, 1,500 cells were seeded in 96-well plates and treated with FQI-34 or vehicle (DMSO) at appropriate concentrations (DMSO at 1%) after 20 hours. After 72-hour incubation with compound or vehicle, cell growth was assessed via the Promega CellTiter 96® AQueous One Solution Cell Proliferation Assay, a colorimetric method to determine the number of viable cells. 20 μL of the CellTiter 96® AQueous One Solution Reagent was added directly into cultured wells and incubated for one hour, after which the absorbance at 490 nm was read with a 96-well plate reader (Opys MR Microplate Reader). The CellTiter 96® AQueous One Solution contains an MTS tetrazolium compound which is bioreduced by cells into a colored formazan product that is soluble in tissue culture medium. The quantity of formazan product as measured by absorbance is directly proportional to the number of living cells in culture. GI50 values were determined from plots of the percentage of compound-treated cell growth to vehicle cell growth vs. compound concentration (GraphPad Prism; non-linear regression 4-parameter curve fit with variable slope).

A549 cells = assay: Cell proliferation assay (MTS), A549; details: for GI50: MTS
Experimental: as §1, §2

LSF = biological target: T1, LSF (Homo sapiens, UniProt Q12800); assay: LSF-dependent luciferase reporter assay in NIH 3T3 cells; set-up: expressed in transfected cells; host or cells: NIH 3T3
T1 sequence (Q12800 1-502): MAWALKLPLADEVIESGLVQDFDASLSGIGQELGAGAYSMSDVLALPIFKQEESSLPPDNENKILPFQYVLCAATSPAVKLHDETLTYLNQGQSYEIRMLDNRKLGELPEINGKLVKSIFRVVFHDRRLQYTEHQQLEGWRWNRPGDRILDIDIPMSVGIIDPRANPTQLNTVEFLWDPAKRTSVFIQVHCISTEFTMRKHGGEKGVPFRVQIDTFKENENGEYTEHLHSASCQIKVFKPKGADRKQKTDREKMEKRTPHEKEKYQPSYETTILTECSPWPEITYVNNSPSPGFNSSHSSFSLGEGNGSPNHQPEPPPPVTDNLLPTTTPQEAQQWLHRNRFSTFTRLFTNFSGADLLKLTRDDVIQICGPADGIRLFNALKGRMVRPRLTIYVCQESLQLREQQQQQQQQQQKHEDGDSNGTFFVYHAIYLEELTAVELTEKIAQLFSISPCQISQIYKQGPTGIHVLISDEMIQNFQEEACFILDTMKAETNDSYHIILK
Experimental: NIH 3T3 cells were transfected with the expression construct pEF1α-LSF, a LSF expression vector^6,20; the reporter construct pGL3B-WT4E1b, a firefly luciferase reporter vector driven by LSF^12; phRL-TK, a control renilla luciferase reporter vector; and pEFGP, essentially as previously described^12. Five hours after transfection, either vehicle (DMSO) or FQI compound was added, keeping DMSO at 0.5%. Cell extracts were harvested 36 hours post-transfection and firefly and renilla luciferase activities measured via a dual luciferase assay (Promega). Five μl of extract was mixed with 30 μl of luciferase assay reagent (Promega), and luminescence measured for 10 seconds using a 20/20n luminometer (Turner Biosystems). Subsequently, 30 μl of Stop & Glo reagent (Promega) was added, and luminescence also measured for 10 seconds. LSF transactivation activity is given as relative luciferase activity, the ratio of firefly to renilla activities.
NIH-3T3 cells were cultured at 37° C. in 5% CO2 in DMEM (Dulbecco's modification of Eagle's Medium; Corning) supplemented with 10% FCS (FCS; Atlanta Biologicals). Approximately 24 hours prior to transfection, 200,000 cells were plated in 35 mm dishes. After 24 hours, cells were ˜70% confluent, and were transfected for 5 hours with pEF1α-LSF, the reporter construct pGL3B-WT4E1b, phRLTK, and pEFGP (Grant, T. J. et al. Antiproliferative small-molecule inhibitors of transcription factor LSF reveal oncogene addiction to LSF in hepatocellular carcinoma. PNAS (2012), 109, 1-6). Vehicle (DMSO) or FQI-34 was then added, keeping the DMSO at 0.5%. Cell extracts were harvested 36 h post-transfection, and firefly and renilla luciferase activities were measured via a dual luciferase assay (Promega Dual-Luciferase Reporter Assay System). Relative luciferase activity represents firefly luciferase activity normalized to that of renilla luciferase in each extract. IC50 values were determined from plots of normalized luciferase activity vs. compound concentration (Prism GraphPad; non-linear regression 4-parameter curve fit with variable slope).

QGY-7703 cells = assay: Cell viability GI50 (MTS), QGY-7703; details: Homo sapiens
Experimental: as §2

HeLa cells = assay: Cell proliferation assay (MTS), HeLa; details: Homo sapiens
Experimental: as §1

| SMILES | GI50 (NIH/3T3 cells; 1,500 cells seeded, 72-hour incubation, MTS, read-out: GI50 in NIH-3T3 cells) [µM] | GI50 (A549 cells; Homo sapiens, 1,500 cells seeded, 72-hour incubation, read-out: GI50 in A549 cells) [µM] | IC50 (LSF; Table 5, read-out: LSF-reporter assay IC50) [µM] | IC50 (LSF; Table 8, read-out: LSF-reporter assay IC50) [µM] | IC50 (LSF; dual-luciferase reporter, NIH-3T3, FIG. 12, read-out: LSF-Target affinity IC50) [µM] | GI50 (QGY-7703 cells; 72-hour incubation, MTS, read-out: GI50 in QGY-7703 cells) [µM] | GI50 (QGY-7703 cells; Table 5, read-out: QGY-7703 GI50) [µM] | GI50 (QGY-7703 cells; Table 8, read-out: QGY-7703 GI50) [µM] | GI50 (NIH/3T3 cells; 72 h, MTS, read-out: GI50 (μM) NIH/3T3) [µM] | IC50 (NIH/3T3 cells; Example 7, FIG. 8, read-out: growth inhibition of NIH/3T3 Cell Line IC50) [µM] | GI50 (NIH/3T3 cells; Table 3, read-out: GI50 (μM) NIH 3T3) [µM] | GI50 (A549 cells; Homo sapiens, 72 h, read-out: GI50 (μM) A549) [µM] | IC50 (A549 cells; Homo sapiens, Example 7, FIG. 8, read-out: growth inhibition of A549 Cell Line IC50) [µM] | IC50 (HeLa cells; HeLa, Example 7, FIG. 8, read-out: growth inhibition of HeLa Cell Line IC50) [µM] | GI50 (HeLa cells; 72 h, MTS) [µM] | IC50 (LSF; NIH 3T3 cells, dual luciferase, ranges where few concentrations tested, read-out: IC50 (μM) LSF-dependent reporter assat NIH 3T3) |
| --- | --- | --- | --- | --- | --- | --- | --- | --- | --- | --- | --- | --- | --- | --- | --- | --- |
| CCOc1cc(N(C)C)ccc1C1CC(=O)Nc2cc3c(cc21)OCO3 (stereo not shown) [FQI-34, 8-(4-(dimethylamino)-2-ethoxyphenyl)-7,8-dihydro-[1,3]dioxolo[4,5-g]quinolin-6(5H)-one] | 1.49 | 1.8 | 0.726 | 0.726 | 0.59 | 0.26 | 0.26 | 0.26 |  |  |  |  |  |  |  |  |
| CCOc1ccccc1C1CC(=O)Nc2cc3c(cc21)OCO3 (racemic) [FQI1, 8-(2-ethoxyphenyl)-7,8-dihydro-[1,3]dioxolo[4,5-g]quinolin-6(5H)-one] |  |  |  |  |  |  |  |  | 3 | 3 ± 0.85 | 3 ± 0.9 | 6.3 | 6.3 ± 1.1 | 0.79 ± 0.035 | 0.79 | ~2.4 µM and 2.4 µM |
